According to the supplement of paper PMC10307832:

Legend:
Test in all cases: relative viability (nuclei count vs DMSO), 5 days (fraction); higher = more cells survive
4EGI-1 + Crizotinib = compound: O=C(O)C(Cc1ccccc1[N+](=O)[O-])=NNc1nc(-c2ccc(Cl)c(Cl)c2)cs1 (mixture of isomers) [4EGI-1] + C[C@@H](Oc1cc(-c2cnn(C3CCNCC3)c2)cnc1N)c1c(Cl)ccc(F)c1Cl [Crizotinib] (partner 1 µM)
Outline: (§1)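 After 5 days of treatment, lung cancer cells in 1536-well plates were fixed and stained in a single step (final 0.05% Triton X-100, 1% formaldehyde, 1 ug/ml Hoechst) and their nuclei counted on 4× images. Treatment had been applied by pin tool the day after seeding as one drug alone or as a fixed anchor-drug dose with five library-drug doses (not always all listed) in √10 steps. Relative viability is the nuclei count of treated wells divided by that of vehicle wells, and values are medians of duplicate plates.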

4EGI-1 + Pemetrexed = compound: O=C(O)C(Cc1ccccc1[N+](=O)[O-])=NNc1nc(-c2ccc(Cl)c(Cl)c2)cs1 (mixture of isomers) [4EGI-1] + Nc1nc2[nH]cc(CCc3ccc(C(=O)N[C@@H](CCC(=O)O)C(=O)O)cc3)c2c(=O)[nH]1 [Pemetrexed] (partner 0.2 µM)
Outline: as §1

XMD8-85 + Tozasertib = compound: CN1CCN(CC1)C2=CC(=C(C=C2)NC3=NC=C4C(=N3)N(C5=CC=CC=C5C(=O)N4C)C)OC [XMD8-85] + Cc1cc(Nc2cc(N3CCN(C)CC3)nc(Sc3ccc(NC(=O)C4CC4)cc3)n2)n[nH]1 [Tozasertib] (partner 0.1 µM)
Outline: as §1

4EGI-1 + Navitoclax = compound: O=C(O)C(Cc1ccccc1[N+](=O)[O-])=NNc1nc(-c2ccc(Cl)c(Cl)c2)cs1 (mixture of isomers) [4EGI-1] + CC1(C)CCC(c2ccc(Cl)cc2)=C(CN2CCN(c3ccc(C(=O)NS(=O)(=O)c4ccc(N[C@H](CCN5CCOCC5)CSc5ccccc5)c(S(=O)(=O)C(F)(F)F)c4)cc3)CC2)C1 [Navitoclax] (partner 0.5 µM)
Outline: as §1

Cell Line	relative viability (4EGI-1 + Crizotinib; first compound 0.5 µM)	relative viability (4EGI-1 + Crizotinib; first compound 5 µM)	relative viability (4EGI-1 + Crizotinib; first compound 15.81 µM)	relative viability (4EGI-1 + Crizotinib; first compound 50 µM)	relative viability (4EGI-1 + Pemetrexed; first compound 0.5 µM)	relative viability (4EGI-1 + Pemetrexed; first compound 1.581 µM)	relative viability (4EGI-1 + Pemetrexed; first compound 5 µM)	relative viability (4EGI-1 + Pemetrexed; first compound 15.81 µM)	relative viability (4EGI-1 + Pemetrexed; first compound 50 µM)	relative viability (XMD8-85 + Tozasertib; first compound 0.08 µM)	relative viability (XMD8-85 + Tozasertib; first compound 0.253 µM)	relative viability (XMD8-85 + Tozasertib; first compound 0.8 µM)	relative viability (XMD8-85 + Tozasertib; first compound 2.53 µM)	relative viability (XMD8-85 + Tozasertib; first compound 8 µM)	relative viability (4EGI-1 + Navitoclax; first compound 0.5 µM)	relative viability (4EGI-1 + Navitoclax; first compound 1.581 µM)	relative viability (4EGI-1 + Navitoclax; first compound 5 µM)	relative viability (4EGI-1 + Navitoclax; first compound 15.81 µM)	relative viability (4EGI-1 + Navitoclax; first compound 50 µM)	relative viability (4EGI-1 + Crizotinib; first compound 1.581 µM)
LC-2-ad	0.433	0.451	0.343	0.411	0.301	0.28	0.287	0.258	0.257	0.411	0.429	0.47	0.33	0.34	0.536	0.486	0.398	0.25	0.0791	–
LCLC-97TM1	0.445	0.397	0.302	0.172	0.181	–	0.195	0.165	0.114	0.278	0.23	0.225	0.225	0.168	0.57	–	0.408	0.374	0.267	–
SW 900	–	–	–	–	0.496	0.513	0.485	0.405	0.136	0.553	0.657	0.557	0.424	0.312	–	–	–	–	–	–
NCI-H460	1.2	1.02	0.517	0.0403	0.0637	0.0738	0.0637	0.0604	0.0616	0.445	0.339	0.445	0.329	0.0548	1.22	–	1.16	0.701	0.0476	–
UMC-11	0.718	0.643	0.602	0.314	0.841	0.792	0.863	0.805	0.52	0.251	0.209	0.233	0.248	0.197	0.392	0.345	0.367	0.301	0.216	0.594
HCC-827	0.935	0.868	–	0.685	0.27	0.232	0.269	–	0.228	–	0.437	0.642	0.387	0.365	1.04	0.936	0.938	–	0.789	0.819
201T	1.06	1.01	1.01	1.02	0.338	0.368	0.387	0.334	0.348	0.964	0.975	–	0.808	0.771	1.25	1.21	1.2	1.19	1.19	0.98
NCI-H1755	0.854	0.875	0.836	0.318	0.424	0.428	0.417	0.561	0.351	0.627	0.571	0.589	0.584	0.436	1.02	0.995	0.949	0.86	0.833	0.824
NCI-H1944	1.18	1.01	0.981	0.599	0.683	–	0.668	0.586	0.331	0.27	0.277	0.264	0.256	0.21	1.19	–	1.07	0.969	0.94	–
